System: parsley (Petroselinum crispum)
Assay: Resistance of parsley to flooding (abiotic) stress after watering with sample solutions
Type: in vivo
Details: potted parsley, watering every three days with 40 ml of 97% water+3% of the sample, observed after 18 days, vs water control
Procedure: The effectiveness of each combination on the plants tolerance to abiotic stress is analyzed.
Before the treatment all the leaves of the parsley plants are cut off.
This abundant watering is intended to mimic a flooding stress.
Each batch consists of four pots.
After 18 days the plants are observed, and pictures are taken.

CC[C@H](CC[C@@H](C)[C@H]1CC[C@H]2[C@@H]3CC=C4C[C@@H](O)CC[C@]4(C)[C@H]3CC[C@]12C)C(C)C [A, beta-sitosterol]
effect on the plants' tolerance to stress (flooding stress): All the samples, except the beta sitosterol alone (sample A), show a positive effect
